The results in this text go back to US12344610B2, “APOL1 inhibitors and methods of use” (Maze Therapeutics, Inc., priority 2022, dated 2025).

Common to all, as to type: cell-based
Common to all, as to details: geometric mean of at least 2 assay runs, † = single assay run

In assay [1] the test system is HEK293 cells overexpressing APOL1 G2. Nature of the assay: APOL1 G2 HEK293 cell rescue assay (reversal of cell death caused by overexpression of APOL1). The method in brief:
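EC50 is the half-maximal effective concentration for reversing cell death driven by APOL1 G2 overexpression in HEK293 cells. Reported as geometric mean of at least 2 runs on separate days, each run averaging duplicate wells per plate; some values from a single run.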

Assay [2] deals with Trypanosoma brucei Lister 427 VSG221 with APOL1 G0 recombinant protein. As to the kind of experiment: APOL1 G0 trypanosome cell rescue assay (Example B5). The gist of the method: (§1)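 Recombinant mature APOL1 (residues 28-398, His-tag removed, E. coli-expressed, refolded from inclusion bodies, DDM buffer) at […] added with 250 trypanosomes/well in modified HMI-9 media. Duplicate 11-point 2-fold compound series, 0.4% DMSO; 20 h at 37° C, 5% CO2, then CellTiter-Glo luminescence for viability.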

In assay [3] the test system is Trypanosoma brucei Lister 427 VSG221 with APOL1 G1 recombinant protein. As to the kind of experiment: APOL1 G1 trypanosome cell rescue assay (Example B5). The gist of the method:
as §1

Setting [4] is: Homo sapiens, HEK293, HEK293 overexpressing APOL1 G2.
[5] abbreviates: Trypanosoma brucei, 20 h, read-out: APOL1 G0 Trypanosome Rescue EC50, Trypanosoma brucei Lister 427 VSG221 with APOL1 G0 recombinant protein, 20 hours, CellTiter-Glo.
[6] abbreviates: Trypanosoma brucei, 20 h, read-out: APOL1 G1 Trypanosome Rescue EC50, Trypanosoma brucei Lister 427 VSG221 with APOL1 G1 recombinant protein, 20 hours, CellTiter-Glo.

Like-named read-outs stand apart in the source and are kept apart here.

A word on the EC50: it is the concentration that produces a half-maximal response. For `CN1c2ccc(OCCN3CCC4(CC3)C(=O)Nc3ccc(C#N)cc34)cc2CCS1(=O)=O` [Compound 104, 1′-{2-[(1-methyl-2,2-dioxo-3,4-dihydro-1H-2λ^6,1-benzothiazin-6-yl)oxy]ethyl}-2-oxo-1,2-dihydrospiro[indole-3,4′-piperidine]-5-carbonitrile], the results for the EC50 in assay [1] (setting [4]), in assay [2] (setting [5]) and in assay [3] (setting [6]) were 139 nM, 583 nM and 726 nM, respectively.

Take `Cc1cc(OCCN2CCC3(CC2)C(=O)Nc2ccc(Cl)cc23)cc(C)c1S(C)(=O)=O` [Compound 129, 5-chloro-1′-[2-(4-methanesulfonyl-3,5-dimethylphenoxy)ethyl]-1,2-dihydrospiro[indole-3,4′-piperidin]-2-one]: the results for the EC50 in assay [1] (setting [4]), in assay [2] (setting [5]) and in assay [3] (setting [6]) were 24.6 nM, 65.2 nM and 69.5 nM, respectively.

Take `C[C@@H](COc1ccc(S(C)(=O)=O)cc1)N1CCC2(CC1)C(=O)Nc1ccccc12` (single isomer, unassigned) [Compound 12]: the EC50 in assay [1] (setting [4]) was found to be 307 nM; in assay [2] (setting [5]), 1930 nM; in assay [3] (setting [6]), 1950 nM.

Regarding `CS(=O)(=O)C1(c2ccc(OCCN3CCC4(CC3)C(=O)Nc3ccc(C#N)cc34)cc2)CCC1` [Compound 181, 1′-{2-[4-(1-methanesulfonylcyclobutyl)phenoxy]ethyl}-2-oxo-1,2-dihydrospiro[indole-3,4′-piperidine]-5-carbonitrile], the figures for the EC50 in assay [1] (setting [4]), in assay [2] (setting [5]) and in assay [3] (setting [6]) were 44.5 nM, 158 nM and 232 nM, respectively.

With `N#Cc1ccc2c(c1)C1(CCN(CCOc3ccc4c(c3)CCN3C(=O)NCC43)CC1)C(=O)N2` (single isomer, unassigned) [Compound 120, (R) or (S)-2-oxo-1′-[2-({3-oxo-1H,2H,3H,5H,6H,10bH-imidazo[4,3-a]isoquinolin-8-yl}oxy)ethyl]-1,2-dihydrospiro[indole-3,4′-piperidine]-5-carbonitrile], the values for the EC50 in assay [1] (HEK293 overexpressing APOL1 G2), in assay [2] (setting [5]) and in assay [3] (setting [6]) were 324 nM, 807 nM and 1250 nM, respectively.

Regarding `O=C1Nc2ccc(Cl)cc2C12CCN(CCOc1ccc(S(=O)(=O)[C@H]3C[C@@H](O)C3)cc1)CC2` [Compound 17, 5-chloro-1′-[2-(4-{[(cis)-3-hydroxycyclobutyl]sulfonyl}phenoxy)ethyl]-1,2-dihydrospiro[indole-3,4′-piperidin]-2-one], the EC50 came out at 60 nM in assay [1] (setting [4]), 108 nM in assay [2] (setting [5]) and 148 nM in assay [3] (setting [6]).

For the compound `N#Cc1ccc2c(c1)C1(CCN(CCOc3ccc4c(c3)CCC(=O)N4CC(F)F)CC1)C(=O)N2` [Compound 105, 1′-(2-{[1-(2,2-difluoroethyl)-2-oxo-1,2,3,4-tetrahydroquinolin-6-yl]oxy}ethyl)-2-oxo-1,2-dihydrospiro[indole-3,4′-piperidine]-5-carbonitrile], the EC50 in assay [1] (setting [4]) turned out to be 40.7 nM; in assay [2] (setting [5]) it was 217 nM; in assay [3] (setting [6]), 274 nM.

`CS(=O)(=O)c1ccc(OCCN2CCC3(CC2)C(=O)Nc2ccc(Cl)cc23)cc1Cl` [Compound 155, 5-chloro-1′-[2-(3-chloro-4-methanesulfonylphenoxy)ethyl]-1,2-dihydrospiro[indole-3,4′-piperidin]-2-one]: the EC50 in assay [1] (setting [4]) came out at 26.2 nM; in assay [2] (setting [5]) it was 25.9 nM; in assay [3] (setting [6]), 36.1 nM.

Turning to `CC(c1c(F)cc(OCCN2CCC3(CC2)C(=O)Nc2ccc(Cl)cc23)cc1F)S(C)(=O)=O` (single isomer, unassigned) [Compound 143, (R) or (S)-5-chloro-1′-{2-[3,5-difluoro-4-(1-methanesulfonylethyl)phenoxy]ethyl}-1,2-dihydrospiro[indole-3,4′-piperidin]-2-one], the EC50 in assay [1] (HEK293 overexpressing APOL1 G2) turned out to be 36.9 nM; in assay [2] (read-out: APOL1 G0 Trypanosome Rescue EC50, Trypanosoma brucei Lister 427 VSG221 with APOL1 G0 recombinant protein, 20 hours, CellTiter-Glo) it was 41.1 nM; in assay [3] (read-out: APOL1 G1 Trypanosome Rescue EC50, Trypanosoma brucei Lister 427 VSG221 with APOL1 G1 recombinant protein, 20 hours, CellTiter-Glo), 64.1 nM.

With `O=C1Nc2ccc(Cl)cc2C12CCN(CCOc1ccc3c(c1)CCNS3(=O)=O)CC2` [Compound 167, 6-(2-{5-chloro-2-oxo-1,2-dihydrospiro[indole-3,4′-piperidin]-1′-yl}ethoxy)-3,4-dihydro-2H-1λ^6,2-benzothiazine-1,1-dione], the EC50 in assay [1] (setting [4]) came out at 42.7 nM; in assay [2] (setting [5]), 98.4 nM; in assay [3] (setting [6]) it was 148 nM.

For the compound `CS(=O)(=O)c1ccc(OCCN2CCC3(CC2)C(=O)Nc2ccc(Cl)cc23)cc1OC(F)F` [Compound 163, 5-chloro-1′-{2-[3-(difluoromethoxy)-4-methanesulfonylphenoxy]ethyl}-1,2-dihydrospiro[indole-3,4′-piperidin]-2-one], the EC50 in assay [1] (setting [4]) came to 24.6 nM; in assay [2] (setting [5]), 55.9 nM; in assay [3] (setting [6]), 90 nM.

With `CS(=O)(=O)CCCn1ncc2cc(OCCN3CCC4(CC3)C(=O)Nc3ccc(Cl)cc34)ccc21` [Compound 14, 5-chloro-1′-(2-{[1-(3-methanesulfonylpropyl)-1H-indazol-5-yl]oxy}ethyl)-1,2-dihydrospiro[indole-3,4′-piperidin]-2-one], the EC50 in assay [1] (setting [4]) amounted to 130 nM; in assay [2] (setting [5]), 378 nM; in assay [3] (setting [6]), 488 nM.

Take `CC(c1c(F)cc(OCCN2CCC3(CC2)C(=O)Nc2ccc(C#N)cc23)cc1F)S(C)(=O)=O` (stereo not drawn) [Compound 137, 1′-{2-[3,5-difluoro-4-(1-methanesulfonylethyl)phenoxy]ethyl}-2-oxo-1,2-dihydrospiro[indole-3,4′-piperidine]-5-carbonitrile]: the EC50 was found to be 114 nM in assay [1] (setting [4]), 322 nM in assay [2] (setting [5]) and 454 nM in assay [3] (setting [6]).

Take `CS(=O)(=O)c1ccc(OCCN2CCC3(CC2)C(=O)Nc2ccc(C#N)cc23)cc1Cl` [Compound 156, 1′-[2-(3-chloro-4-methanesulfonylphenoxy)ethyl]-2-oxo-1,2-dihydrospiro[indole-3,4′-piperidine]-5-carbonitrile]: the EC50 in assay [1] (setting [4]) stood at 55.9 nM; in assay [2] (setting [5]) it was 96.6 nM; in assay [3] (setting [6]) it was 154 nM.

For `CCS(=O)(=O)C1(c2ccc(OCCN3CCC4(CC3)C(=O)Nc3ccc(C#N)cc34)cc2)COC1` [Compound 174, 1′-(2-{4-[3-(ethanesulfonyl)oxetan-3-yl]phenoxy}ethyl)-2-oxo-1,2-dihydrospiro[indole-3,4′-piperidine]-5-carbonitrile], the results for the 50% effective concentration (EC50) in assay [1] (setting [4]), in assay [2] (setting [5]) and in assay [3] (setting [6]) were 104 nM, 401 nM and 481 nM, respectively.

On to `CN1C(=O)Cc2cc(OCCN3CCC4(CC3)C(=O)Nc3ccc(C#N)cc34)cc(F)c21` [Compound 169, 1′-{2-[(7-fluoro-1-methyl-2-oxo-2,3-dihydro-1H-indol-5-yl)oxy]ethyl}-2-oxo-1,2-dihydrospiro[indole-3,4′-piperidine]-5-carbonitrile], for which the results for the EC50 in assay [1] (setting [4]), in assay [2] (setting [5]) and in assay [3] (setting [6]) were 247 nM, 619 nM and 918 nM, respectively.

As to `CS(=O)(=O)C1(c2c(F)cc(OCCN3CCC4(CC3)C(=O)Nc3ccc(Cl)cc34)cc2F)COC1` [Compound 136, 5-chloro-1′-{2-[3,5-difluoro-4-(3-methanesulfonyloxetan-3-yl)phenoxy]ethyl}-1,2-dihydrospiro[indole-3,4′-piperidin]-2-one], the EC50 in assay [1] (setting [4]) was determined as 22.4 nM; in assay [2] (setting [5]), 31.5 nM; in assay [3] (setting [6]), 37.1 nM.

Regarding `CS(=O)(=O)C1(c2ccc(OCCN3CCC4(CC3)C(=O)N(CCO)c3ccc(Cl)cc34)cc2)COC1` [Compound 160, 5-chloro-1-(2-hydroxyethyl)-1′-{2-[4-(3-methanesulfonyloxetan-3-yl)phenoxy]ethyl}-1,2-dihydrospiro[indole-3,4′-piperidin]-2-one], the EC50 in assay [1] (setting [4]) came to 75.4 nM; in assay [2] (setting [5]), 109 nM; in assay [3] (setting [6]), 156 nM.

Take `O=C1CCC2c3ccc(OCCN4CCC5(CC4)C(=O)Nc4ccc(Cl)cc45)cc3CCN12` (single isomer, unassigned) [Compound 122, (S) or (R)-5-chloro-1′-[2-({3-oxo-1H,2H,3H,5H,6H,10bH-pyrrolo[2,1-a]isoquinolin-8-yl}oxy)ethyl]-1,2-dihydrospiro[indole-3,4′-piperidin]-2-one]: the half-maximal effective concentration (EC50) in assay [1] (setting [4]) came to 87.5 nM; in assay [2] (setting [5]) it was 252 nM; in assay [3] (setting [6]) it was 337 nM.

For `O=C1CCc2cc(OCCN3CCC4(CC3)C(=O)Nc3ccc(Cl)cc34)ccc2N1CC(F)F` [Compound 106, 5-chloro-1′-(2-{[1-(2,2-difluoroethyl)-2-oxo-1,2,3,4-tetrahydroquinolin-6-yl]oxy}ethyl)-1,2-dihydrospiro[indole-3,4′-piperidin]-2-one], the figures for the EC50 in assay [1] (setting [4]), in assay [2] (setting [5]) and in assay [3] (setting [6]) were 33.5 nM, 69 nM and 91.8 nM, respectively.

Take `CN1Cc2cc(OCCN3CCC4(CC3)C(=O)Nc3ccc(Cl)cc34)ccc2C1=O` [Compound 146, 5-chloro-1′-{2-[(2-methyl-1-oxo-2,3-dihydro-1H-isoindol-5-yl)oxy]ethyl}-1,2-dihydrospiro[indole-3,4′-piperidin]-2-one]: the EC50 in assay [1] (setting [4]) was determined as 121 nM; in assay [2] (setting [5]) it was 346 nM; in assay [3] (setting [6]), 427 nM.
